Data published in publication doi:10.1101/2022.03.26.485909v4 (biorxiv, 2022).
pIC50, pKd: −log10 of the molar value.

Key:
[1] = target: SPOP^MATH (Homo sapiens, UniProt O43791); experiment: fluorescence polarization, displacement of FITC-puc_SBC1 peptide; type: binding
[2] = target: T1, RNF130 (Homo sapiens, UniProt Q86XS8); experiment: SPR, Biacore T200, amine-coupled RNF130 on CM5 chip; type: binding
T1 sequence (Q86XS8 28-304): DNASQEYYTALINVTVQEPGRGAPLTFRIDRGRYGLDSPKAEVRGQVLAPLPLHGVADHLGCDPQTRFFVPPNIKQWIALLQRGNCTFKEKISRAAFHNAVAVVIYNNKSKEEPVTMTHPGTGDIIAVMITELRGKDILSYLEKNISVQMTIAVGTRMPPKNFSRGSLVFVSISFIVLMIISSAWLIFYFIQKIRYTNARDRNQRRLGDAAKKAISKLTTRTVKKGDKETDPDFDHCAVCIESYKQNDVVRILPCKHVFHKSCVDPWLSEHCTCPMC

Chain of SPOP^MATH (O43791 28-166): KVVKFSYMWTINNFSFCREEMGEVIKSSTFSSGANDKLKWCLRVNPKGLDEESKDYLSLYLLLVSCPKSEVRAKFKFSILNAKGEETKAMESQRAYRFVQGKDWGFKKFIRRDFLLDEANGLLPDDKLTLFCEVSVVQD

SMILES | pIC50 [1] | pKd [2]
Cc1nnc(SCC2=C(C(=O)O)N3C(=O)C(NC(=O)c4ccc(COc5ccccc5Cl)o4)C3SC2)s1 (stereo not drawn) [221C7] | 5.37 | 
CC(=O)OCC1=C(C(=O)O)N2C(=O)C(NC(=O)c3ccc(COc4ccc(Br)cc4Cl)o3)C2SC1 (stereo not drawn) [230D7, 3-(acetoxymethyl)-7-(5-((4-bromo-2-chlorophenoxy)methyl)furan-2-carboxamido)-8-oxo-5-thia-1-azabicyclo[4.2.0]oct-2-ene-2-carboxylic acid] | 5.06 | 
CS(=O)(=O)c1nnc(CN2C3C=C(c4ccccc4)CC2CC3)s1 (stereo not drawn) [iRNF130-63] |  | 5.03
